The test system of this series is CCRIS mutagenicity, Ames/micronucleus/aberration tests. The series is described as follows: CCRIS mutagenicity studies. The source says: The CCRIS database contains chemical records with carcinogenicity, mutagenicity, tumor promotion, and tumor inhibition test results. It was developed by the National Cancer Institute (NCI). Data are derived from studies cited in primary journals, current awareness tools, NCI reports, and other sources. Test results have been reviewed by experts in carcinogenesis and mutagenesis.
CCRIS provides historical information from the years 1985 - 2011. It is no longer updated.
This is an archive assay for CCRIS mutagenicity studies.

[1] abbreviates: Test System: AMES SALMONELLA TYPHIMURIUM, Strain/Indicator: TA98, Metabolic Activation: HAMSTER, LIVER, S-9, AROCLOR 1254 (10%), Method: PREINCUBATION
[2] abbreviates: Test System: AMES SALMONELLA TYPHIMURIUM, Strain/Indicator: TA98, Metabolic Activation: NONE, Method: PREINCUBATION
Where [3] appears, read: Test System: AMES SALMONELLA TYPHIMURIUM, Strain/Indicator: TA98, Metabolic Activation: RAT, LIVER, S-9, AROCLOR 1254 (10%), Method: PREINCUBATION
[4] abbreviates: Test System: AMES SALMONELLA TYPHIMURIUM, Strain/Indicator: TA100, Metabolic Activation: HAMSTER, LIVER, S-9, AROCLOR 1254 (10%), Method: PREINCUBATION
Setting [5] is: Test System: AMES SALMONELLA TYPHIMURIUM, Strain/Indicator: TA100, Metabolic Activation: NONE, Method: PREINCUBATION
[6] abbreviates: Test System: AMES SALMONELLA TYPHIMURIUM, Strain/Indicator: TA100, Metabolic Activation: RAT, LIVER, S-9, AROCLOR 1254 (10%), Method: PREINCUBATION
The mark [7] stands for this setting: Test System: AMES SALMONELLA TYPHIMURIUM, Strain/Indicator: TA1535, Metabolic Activation: HAMSTER, LIVER, S-9, AROCLOR 1254 (10%), Method: PREINCUBATION
Where [8] appears, read: Test System: AMES SALMONELLA TYPHIMURIUM, Strain/Indicator: TA1535, Metabolic Activation: NONE, Method: PREINCUBATION
[9] abbreviates: Test System: AMES SALMONELLA TYPHIMURIUM, Strain/Indicator: TA1535, Metabolic Activation: RAT, LIVER, S-9, AROCLOR 1254 (10%), Method: PREINCUBATION
The mark [10] stands for this setting: Test System: AMES SALMONELLA TYPHIMURIUM, Strain/Indicator: TA1537, Metabolic Activation: HAMSTER, LIVER, S-9, AROCLOR 1254 (10%), Method: PREINCUBATION
Setting [11] is: Test System: AMES SALMONELLA TYPHIMURIUM, Strain/Indicator: TA1537, Metabolic Activation: NONE, Method: PREINCUBATION
Where [12] appears, read: Test System: AMES SALMONELLA TYPHIMURIUM, Strain/Indicator: TA1537, Metabolic Activation: RAT, LIVER, S-9, AROCLOR 1254 (10%), Method: PREINCUBATION
The mark [13] stands for this setting: Test System: AMES SALMONELLA TYPHIMURIUM, Strain/Indicator: TA97, Metabolic Activation: RAT, LIVER, S-9, AROCLOR 1254, Method: STANDARD PLATE.
The mark [14] stands for this setting: Test System: AMES SALMONELLA TYPHIMURIUM, Strain/Indicator: TA98, Metabolic Activation: NONE, Method: STANDARD PLATE.
Where [15] appears, read: Test System: AMES SALMONELLA TYPHIMURIUM, Strain/Indicator: TA98, Metabolic Activation: RAT, LIVER, S-9, AROCLOR 1254, Method: STANDARD PLATE.
[16] abbreviates: Test System: AMES SALMONELLA TYPHIMURIUM, Strain/Indicator: TA100, Metabolic Activation: NONE, Method: STANDARD PLATE.
The mark [17] stands for this setting: Test System: AMES SALMONELLA TYPHIMURIUM, Strain/Indicator: TA100, Metabolic Activation: RAT, LIVER, S-9, AROCLOR 1254, Method: STANDARD PLATE.
Where [18] appears, read: Test System: AMES SALMONELLA TYPHIMURIUM, Strain/Indicator: TA1535, Metabolic Activation: RAT, LIVER, S-9, AROCLOR 1254, Method: STANDARD PLATE.

Activity calls are given as the source filed them. How the calls were made is not given here. Where a SMILES comes first, the peptide text is derived from it.

For `O=C/C=C/C=C/C(=O)O`, for the setting “Test System: CHINESE HAMSTER V-79, Strain/Indicator: V-79 (HGPRT)/8-AZAGUANINE, Metabolic Activation: NONE”, the mutagenic call was “active; positive”.
On to `O=C(OC1CCCCC1)c1ccccc1C(=O)OC1CCCCC1`, for which the mutagenic call under setting [1] is “inactive; negative”; the mutagenic call under setting [2] is “inactive; negative”; the mutagenic call under setting [3] was “inactive; negative”; the mutagenic call under setting [4] was “inactive; negative”; the mutagenic call under setting [5] was “inactive; negative”; the mutagenic call under setting [6] was “inactive; negative”. In addition, the mutagenic call reads like this: under setting [7], “inactive; negative”; under setting [8], “inactive; negative”; under setting [9], “inactive; negative”; under setting [10], “inactive; negative”; under setting [11], “inactive; negative”; under setting [12], “inactive; negative”.
As to `OC(c1ccc(Cl)cc1)(c1ccc(Cl)cc1)C1CC1`, the mutagenic call is, setting by setting: (Test System: AMES SALMONELLA TYPHIMURIUM, Strain/Indicator: TA97, Metabolic Activation: NONE, Method: STANDARD PLATE) “inactive; negative”; under setting [13], “inactive; negative”; under setting [14], “inactive; negative”; under setting [15], “inactive; negative”; under setting [16], “inactive; negative”; under setting [17], “inactive; negative”.
For `NC(N)=NC(N)=NCCc1ccccc1`, the mutagenic call by setting is: (End Point: IN VITRO CHROMOSOMAL ABERRATIONS, Test System: CHO CELLS, Metabolic Activation: NONE) “inactive; negative”; (End Point: IN VITRO CHROMOSOMAL ABERRATIONS, Test System: CHO CELLS, Metabolic Activation: RAT, LIVER, S-9, PHENOBARBITAL AND BETA-NAPHTHOFLAVONE) “inactive; negative”; under setting [1], “inactive; negative”; under setting [2], “inactive; negative”; under setting [3], “inactive; negative”; under setting [4], “inactive; negative”. Moreover, the mutagenic call reads like this: under setting [5], “inactive; negative”; under setting [6], “inactive; negative”; under setting [7], “inactive; negative”; under setting [8], “inactive; negative”; under setting [9], “inactive; negative”; under setting [10], “inactive; negative”. The mutagenic call reads like this: under setting [11], “inactive; negative”; under setting [12], “inactive; negative”.
For `CC(C)CC(NC(=O)COc1ccc(Cl)cc1Cl)C(=O)O` (configuration not stated), the mutagenic call under setting [13] is “inactive; negative”; the mutagenic call (Test System: AMES SALMONELLA TYPHIMURIUM, Strain/Indicator: TA97, Metabolic Activation: WOODCHUCK, LIVER, S-9, 3-METHYLCHOLANTHRENE, Method: STANDARD PLATE) is “inactive; negative”; the mutagenic call under setting [15] is “inactive; negative”; the mutagenic call (Test System: AMES SALMONELLA TYPHIMURIUM, Strain/Indicator: TA98, Metabolic Activation: WOODCHUCK, LIVER, S-9, 3-METHYLCHOLANTHRENE, Method: STANDARD PLATE) was “inactive; negative”; the mutagenic call under setting [17] was “inactive; negative”; the mutagenic call (Test System: AMES SALMONELLA TYPHIMURIUM, Strain/Indicator: TA100, Metabolic Activation: WOODCHUCK, LIVER, S-9, 3-METHYLCHOLANTHRENE, Method: STANDARD PLATE) was “inactive; negative”. Further, the mutagenic call is “inactive; negative” under setting [18]; “inactive; negative” (Test System: AMES SALMONELLA TYPHIMURIUM, Strain/Indicator: TA1535, Metabolic Activation: WOODCHUCK, LIVER, S-9, 3-METHYLCHOLANTHRENE, Method: STANDARD PLATE); “inactive; negative” (Test System: AMES SALMONELLA TYPHIMURIUM, Strain/Indicator: TA1538, Metabolic Activation: RAT, LIVER, S-9, AROCLOR 1254, Method: STANDARD PLATE); “inactive; negative” (Test System: AMES SALMONELLA TYPHIMURIUM, Strain/Indicator: TA1538, Metabolic Activation: WOODCHUCK, LIVER, S-9, 3-METHYLCHOLANTHRENE, Method: STANDARD PLATE).
Regarding `NC(=O)N(CCCl)N=O`, the mutagenic call (Test System: CHINESE HAMSTER V-79, Strain/Indicator: V-79/6-THIOGUANINE, Metabolic Activation: NONE, Method: STANDARD PLATE) is “active; positive”; the mutagenic call (Test System: E. COLI B, Strain/Indicator: H/R30R, Metabolic Activation: NONE) was “active; positive”; the mutagenic call (Test System: E. COLI B, Strain/Indicator: HS30R, Metabolic Activation: NONE) is “active; positive”.
As for `NCCCC[C@H](NC(=O)[C@H](Cc1c[nH]c2ccccc12)NC(=O)[C@@H](N)CCCCN)C(=O)O` (H-Lys-Trp-Lys-OH), the mutagenic call under setting [14] is “inactive; negative”; the mutagenic call under setting [15] is “inactive; negative”; the mutagenic call under setting [16] is “inactive; negative”; the mutagenic call under setting [17] is “inactive; negative”; the mutagenic call (Test System: AMES SALMONELLA TYPHIMURIUM, Strain/Indicator: TA1535, Metabolic Activation: NONE, Method: STANDARD PLATE) was “inactive; negative”; the mutagenic call under setting [18] was “inactive; negative”. For the same compound, the mutagenic call runs as follows: (Test System: AMES SALMONELLA TYPHIMURIUM, Strain/Indicator: TA1537, Metabolic Activation: NONE, Method: STANDARD PLATE) “inactive; negative”; (Test System: AMES SALMONELLA TYPHIMURIUM, Strain/Indicator: TA1537, Metabolic Activation: RAT, LIVER, S-9, AROCLOR 1254, Method: STANDARD PLATE) “inactive; negative”.
Take `Nc1c[n+](N2CCOCC2)no1`: the mutagenic call is, setting by setting: (Test System: E. COLI, Strain/Indicator: WP2 UVRA (PKM101), Metabolic Activation: NONE, Method: STANDARD PLATE) “inactive; negative”; (Test System: E. COLI, Strain/Indicator: WP2 UVRA/OXYR (PKM101), Metabolic Activation: NONE, Method: STANDARD PLATE) “active; positive”.
With `COc1ccc([N+](=O)[O-])ccc1=O`, the mutagenic call was “active; positive” (Test System: AMES SALMONELLA TYPHIMURIUM, Strain/Indicator: TA98, Metabolic Activation: RAT, LIVER, S-9, KC500 OR PHENOBARBITAL, Method: LIQUID SUSPENSION) and “active; positive” (Test System: AMES SALMONELLA TYPHIMURIUM, Strain/Indicator: TA100, Metabolic Activation: RAT, LIVER, S-9, KC500 OR PHENOBARBITAL, Method: LIQUID SUSPENSION).
For the compound `Clc1nncc2ccncc12`, the mutagenic call under setting [2] is “inactive; negative”; the mutagenic call (Test System: AMES SALMONELLA TYPHIMURIUM, Strain/Indicator: TA98, Metabolic Activation: RAT, LIVER, S-9, PCB, Method: PREINCUBATION) was “inactive; negative”; the mutagenic call under setting [5] is “inactive; negative”; the mutagenic call (Test System: AMES SALMONELLA TYPHIMURIUM, Strain/Indicator: TA100, Metabolic Activation: RAT, LIVER, S-9, PCB, Method: PREINCUBATION) was “inactive; negative”.

The record behind these values is PubChem BioAssay AID1259407 (Chemical Carcinogenesis Research Information System (CCRIS), 2018).
